The source of these data is US20100028892A1, “YEAST BASED EXPRESSION OF PROTEASES AND METHODS OF USE” (Burnham Institute for Medical Research, priority 2008, published 2010).

In one assay the target is T1, Fas/FADD/Caspase-8 (Homo sapiens, UniProt P25445+Q13158+Q14790).
T1 construct: a small amount of each full-length Caspase construct was expressed with a large amount of adaptor protein FADD; HA (C); expressed in transfected cells; host or cells: Saccharomyces cerevisiae EGY48
Briefly: yeast Fas/FADD/Caspase-8 HTS assay with counter-screen strains (lacZ, Asc/Caspase-1, empty vector). It counts as cell-based. The conditions noted are these: 384 well, OD620, 2-4 days at 30° C., versus lacZ, Asc/Caspase-1 and empty vector strains. The procedure: The results of a HTS of a yeast-based NALP1 inflammasome assay are shown in FIG. 12 consisting of FIGS. 12A-G (A) NALP1 yeast screen controls. Yeast cells containing ASC/Nalp1ΔLRR/Caspase1 were plated at 1.88×10^5 cells/well in a 384 well plate in media containing 1% galactose/2% raffinose, with (squares) or without (diamonds) 400 μg/ml X-gal substrate. The plates were incubated for 72 hrs at 30° C. and the plates were read at OD620. (B) Yeast Screen of LOPAC compound library plate 4 for NALP1. Yeast cells containing ASC/NALP1/Caspase1 were plated at 1.88×10^5 cells/well in a 384 well plate in media containing 1% galactose, 2% raffinose, with or without 400 μg/ml X-gal. The plates were incubated for 72 hrs at 30° C. and the plates were read at OD620. The compounds were screened at 100 μM and “hits” were defined by >50% reduction (as shown). (C) Validation of HTS assay for Fas-FADD-Caspase-8 system. Yeast cells containing Fas/FADD/Caspase-8 were cultured in 384 well plates as above with (blue squares) or without (purple diamonds) Xgal substrate, the plates were incubated for 72 hrs at 30° C. and analyzed as above. (D) Example of library screening plate for Fas-FADD-Caspase-8. […] Plates were incubated for 48 hrs at 30° C. and OD620 values recorded. […] Data represent relative fluorescence units (RFU) assessed in the absence or presence of various concentrations of compound (CID-2531). […]
Background: The purpose of a counterscreen is to sort out artefacts and off-target activity.

The next assay has as its system Caspases. The assay can be described thus: validation of 384 well yeast-based Caspase-dependent lacZ reporter gene assays with pharmacological inhibitors. It counts as cell-based, human. The settings on record: 384 well yeast-based Caspase-dependent reporter gene assay. From the text:
When converting the yeast-based protease reporter system to HTS assay, conditions from agar plates to liquid medium in microtiter wells must be revised. This revision comprises, utilizing the measured β-galactosidase produced by yeast carrying the Caspase-cleavable reporter proteins, and assaying the colorimetric product (OD620nm) derived from X-gal substrate in 384 well plates, as a measure of the lacZ reporter gene activity. We compared β-galactosidase activity produced in the presence or absence of the broad-spectrum caspase inhibitory compound, zVAD-fmk ([…]-Valinyl-Alaninyl-Aspartyl-fluoromethylketone). Among the variables that were initially interrogated were initial seeding cell density, time of culture, concentration of X-gal substrate, and supporting carbohydrate (raffinose vs mannose). Note that it was determined that it is not advisible to employ glucose in yeast media because it represses the GAL1 promoter used in some plasmids. An example of data obtained using the plural-component system of Fas/FADD/Caspase-8 is presented. All variables tested altered the signal:noise ratio of the assay. […] For the two-component system of ASC/Caspase-1 and for the plural-component system of NALP1ΔLRR/ASC/Caspase-1, the same conditions were optimal, among those tested (not shown). For the Fas/Fadd/Caspase 8, the caspase and adaptor protein (Fadd) were expressed at relatively small amounts (a weak promoter and low copy number plasmid are used) and the upstream activator (Fas) was expressed in a large amount.
The 384 well assay format was further validated, using zVAD-fmk, a peptidyl inhibitor with broad-spectrum activity against animal Caspases. […]
The validation results of a yeast-based Caspase assay using a pharmacological inhibitor of Caspases are shown in FIG. 11 consisting of FIGS. 11A-C (A) Caspase-1, single-component assay. […] For (A-C), relative absorbance at 620 nm was measured (mean ±std dev; n=3-5 independent experiments). […]
Assays were performed in a total volume of […] in triplicate. […] Absorbance at 620 nm was measured 2-3 days after culture at 30° C.
Background: Reporter assays use an easily measured gene product as a stand-in for the process of interest.

In a further assay the target is Caspase-8 (Homo sapiens, UniProt Q14790). Briefly: in vitro biochemical assay with purified recombinant Caspase-8 and fluorigenic substrate Ac-IETD-AFC. The conditions noted are these: purified recombinant Caspase-8, Ac-IETD-AFC, various concentrations of compound. As for the experimental part:
The results of a HTS of a yeast-based NALP1 inflammasome assay are shown in FIG. 12 consisting of FIGS. 12A-G (A) NALP1 yeast screen controls. Yeast cells containing ASC/Nalp1ΔLRR/Caspase1 were plated at 1.88×10^5 cells/well in a 384 well plate in media containing 1% galactose/2% raffinose, with (squares) or without (diamonds) 400 μg/ml X-gal substrate. The plates were incubated for 72 hrs at 30° C. and the plates were read at OD620. (B) Yeast Screen of LOPAC compound library plate 4 for NALP1. Yeast cells containing ASC/NALP1/Caspase1 were plated at 1.88×10^5 cells/well in a 384 well plate in media containing 1% galactose, 2% raffinose, with or without 400 μg/ml X-gal. The plates were incubated for 72 hrs at 30° C. and the plates were read at OD620. The compounds were screened at 100 μM and “hits” were defined by >50% reduction (as shown). (C) Validation of HTS assay for Fas-FADD-Caspase-8 system. Yeast cells containing Fas/FADD/Caspase-8 were cultured in 384 well plates as above with (blue squares) or without (purple diamonds) Xgal substrate, the plates were incubated for 72 hrs at 30° C. and analyzed as above. (D) Example of library screening plate for Fas-FADD-Caspase-8. […] Plates were incubated for 48 hrs at 30° C. and OD620 values recorded. […] Data represent relative fluorescence units (RFU) assessed in the absence or presence of various concentrations of compound (CID-2531).

T1 sequence (Q14790 whole entry): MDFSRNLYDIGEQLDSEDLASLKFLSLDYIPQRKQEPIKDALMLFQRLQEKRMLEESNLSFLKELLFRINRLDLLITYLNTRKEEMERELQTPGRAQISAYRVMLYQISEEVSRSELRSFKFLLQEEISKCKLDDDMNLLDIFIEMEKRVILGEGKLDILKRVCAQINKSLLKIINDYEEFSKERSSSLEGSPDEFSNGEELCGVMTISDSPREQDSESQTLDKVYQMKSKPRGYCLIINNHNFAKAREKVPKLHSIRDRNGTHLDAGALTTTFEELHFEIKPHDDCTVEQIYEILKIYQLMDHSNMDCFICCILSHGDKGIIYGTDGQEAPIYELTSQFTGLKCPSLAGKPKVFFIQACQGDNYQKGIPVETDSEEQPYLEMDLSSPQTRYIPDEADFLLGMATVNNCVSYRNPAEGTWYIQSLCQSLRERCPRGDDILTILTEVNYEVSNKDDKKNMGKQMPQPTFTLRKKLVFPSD
T1 sequence (Q13158 whole entry): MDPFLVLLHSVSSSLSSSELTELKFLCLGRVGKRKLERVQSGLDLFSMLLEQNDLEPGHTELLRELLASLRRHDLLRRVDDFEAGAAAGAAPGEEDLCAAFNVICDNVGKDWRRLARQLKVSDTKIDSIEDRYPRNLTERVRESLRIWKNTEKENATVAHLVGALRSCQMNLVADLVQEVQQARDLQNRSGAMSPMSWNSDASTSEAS
T1 sequence (P25445 26-335): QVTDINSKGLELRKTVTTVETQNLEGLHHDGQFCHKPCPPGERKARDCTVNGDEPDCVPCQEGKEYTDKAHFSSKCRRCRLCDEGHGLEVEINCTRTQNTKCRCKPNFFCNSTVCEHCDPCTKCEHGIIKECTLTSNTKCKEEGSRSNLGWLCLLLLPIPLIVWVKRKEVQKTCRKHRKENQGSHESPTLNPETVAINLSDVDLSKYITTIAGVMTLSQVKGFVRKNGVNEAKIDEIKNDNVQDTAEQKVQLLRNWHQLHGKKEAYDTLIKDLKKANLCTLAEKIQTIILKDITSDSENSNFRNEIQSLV
Caspase-8, sequence (Q14790 217-479): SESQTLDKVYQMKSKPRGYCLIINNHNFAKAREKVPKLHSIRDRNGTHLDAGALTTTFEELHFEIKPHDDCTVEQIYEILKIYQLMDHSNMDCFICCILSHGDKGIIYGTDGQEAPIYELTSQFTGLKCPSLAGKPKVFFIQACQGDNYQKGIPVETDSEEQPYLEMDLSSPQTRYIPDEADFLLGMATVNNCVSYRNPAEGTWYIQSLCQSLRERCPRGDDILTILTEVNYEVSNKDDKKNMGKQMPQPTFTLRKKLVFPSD

Consider `C[n+]1cc2c3c(ccc2c2ccc4cc5c(cc4c21)OCO5)OCO3` [CID-5154], for which the “selective inhibition of Fas-FADD-Caspase-8” value on Fas/FADD/Caspase-8 is “evidence of selective inhibition”.

Consider `CCCC[C@@H](C=O)NC(=O)[C@H](CC(C)C)NC(=O)OCc1ccccc1` [Calpain inhibitor, calpeptin], for which, in the assay on Caspases, the “effect on β-galactosidase activity / activation of the lacZ reporter gene” value is reported as “did not suppress activation of the lacZ reporter gene”.

For `c1ccc2c(c1)[I+]c1ccccc1-2` [CID-3101], on Fas/FADD/Caspase-8, the “selective inhibition of Fas-FADD-Caspase-8” value is recorded as “evidence of selective inhibition”.

As for `Clc1ccc(C(c2ccc(Cl)cc2)n2cc[n+](CC(OCc3ccc(Cl)cc3Cl)c3ccc(Cl)cc3Cl)c2)cc1` (stereo not shown) [CID-2531], the “inhibition of Caspase-8 (relative fluorescence units)” value on Caspase-8 is reported as “evidence of inhibition of Caspase-8”.
